According to US20260231994A1, “TASTE-ENHANCING COMPOSITION, METHOD FOR PRODUCING SAME, FOOD PRODUCT, AND METHOD FOR ENHANCING TASTE OF FOOD PRODUCT” (HOUSE FOODS GROUP INC., priority 2023, published 2026):

Legend:
Type in all cases: in vivo
[1] = Experiment 6 sensory evaluation of cyclic dipeptides, “boosting of last flavor (aftertaste)”
In short: (§1)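 Reduced-sodium curry roux (44 g in 300 g hot water) was spiked with cyclic dipeptide solutions matching heat-treated coriander or paprika levels, at 0.5% or 1.0% (w/w) final. Three evaluators scored each sample against unspiked reduced-sodium and common roux. Mean scores were graded F to AA.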

[2] = Experiment 6 sensory evaluation of cyclic dipeptides, “top sharp saltiness”
In short: as §1

[3] = Experiment 1 sensory evaluation of “boosting of flavor” (cyclic dipeptides, coriander); conditions: for “boosting of flavor” Average: cyclic dipeptide aqueous solution (concentration as in heat-treated coriander) at final 0.2% (w/w) in reduced-sodium curry roux dispersion, score 1-5; for “boosting of flavor” Evaluation: cyclic dipeptide aqueous solution at final 0.2% (w/w) in reduced-sodium curry roux dispersion, class of average score
Description: Flour roux was prepared by putting 20 g of flour and 30 g of beef tallow in a pan, then heating with stirring at 120° C. To this flour roux were added 10 g of sodium chloride, 10 g of sugar, 10 g of cornstarch, 5 g of curry powder and 15 g of other seasoning ingredients (vegetable and fruit extracts, yeast extract and seafood extract), and after heat-treatment to 105° C., the mixture was cooled and solidified, to form a block of common curry roux.
The sodium chloride equivalent per 100 g of this curry roux was 10.6 g.
Reduced-sodium curry roux was prepared according to the same procedure, except that the amount of sodium chloride was reduced to 7 g from the amount in the common curry roux in (1).
The sodium chloride equivalent per 100 g of this reduced-sodium curry roux was 7.7 g.
Out of the cyclic dipeptides included in the heat-treated coriander prepared in 1.1. described above, which were confirmed to be increased in 1.2. above, an aqueous solution of the respective 14 cyclic dipeptides shown in the table described below was prepared. The concentration of the cyclic dipeptide in each aqueous solution was set to be equal to its concentration in the heat-treated coriander prepared in 1.1. described above, which was estimated from the ratio of the peak area of the cyclic dipeptide to the peak area of the internal standard (47 μg/g L-lysine-^13C6 monohydrochloride) confirmed in 1.2. described above.
Two dispersions of 44 g of the reduced-sodium curry roux in (2) dispersed in 300 g of hot water were prepared.
To one of them was added the heat-treated coriander or the powdered unheated coriander prepared in 1.1. described above, or the cyclic dipeptide aqueous solution (corresponding to the heat-treated coriander) prepared in (3) above, so that the final concentration was 0.2% (w/w), and a sensory evaluation was carried out.
Forty-four grams of the common curry roux in (1) was dispersed in 300 g of hot water.
The dispersion of reduced-sodium curry roux dispersed in hot water and the dispersion of common curry roux dispersed in hot water were used as comparative controls, and the strength of the flavor was evaluated by four evaluators on the basis of the following evaluation criteria from the viewpoint of “boosting of flavor.” The term “boosting of flavor” in this experiment is an effect concerted by the combination of sodium chloride and other foodstuffs in curry roux, and is an aspect of “saltiness.” Thus, the “flavor” in this experiment can be also expressed as “saltiness.”
The average of the evaluated scores was defined as “F” when it was 1.0 or lower, “C” when it was 1.1 or higher and 1.9 or lower, “B” when it was 2.0 or higher and 2.5 or lower, “A” when it was 2.6 or higher and 2.9 or lower, and “AA” when it was 3.0 or higher.

[4] = Experiment 6 sensory evaluation of cyclic dipeptides, “middle fullness (enhanced thickness)”
In short: as §1

[5] = Additive amount paprika 0.5%, reduced-sodium curry roux
[6] = heat-treated paprika equivalent aqueous solution of cyclic dipeptide, final 1.0% (w/w) in reduced-sodium curry roux dispersion
[7] = heat-treated paprika equivalent aqueous solution of cyclic dipeptide, final 1.0% (w/w) in reduced-sodium curry roux dispersion, 3 evaluators
[8] = Additive amount paprika 0.5% (heat-treated paprika equivalent aqueous solution, final 0.5% (w/w)), reduced-sodium curry roux

| Substance | Bosting of last flavor Average [1, 5] [points] | Bosting of last flavor Evaluation [1, 5] | Bosting of last flavor Evaluation [1, 6] | Bosting of last flavor Average [1, 7] [points] | Top sharp saltiness Average [2, 8] [points] | Top sharp saltiness Evaluation [2, 5] | Top sharp saltiness Evaluation [2, 6] | Top sharp saltiness Average [2, 7] [points] | “boosting of flavor” Average [3] [points] | “boosting of flavor” Evaluation [3] | Middle fullness Average [4, 5] [points] | Middle fullness Evaluation [4, 5] | Middle fullness Evaluation [4, 6] | Middle fullness Average [4, 7] [points] | “boosting of flavor” in words ([3]; added to reduced-sodium curry roux dispersion, compared with no addition, unheated coriander or common curry roux) |
| --- | --- | --- | --- | --- | --- | --- | --- | --- | --- | --- | --- | --- | --- | --- | --- |
| cyclic (Phe-Pro) [Coriander ID 40] | 2.3 | B (“B” when it was 2.0 or higher and 2.5 or lower) | AA (“AA” when it was 3.0 or higher) | 3.0 | 2.5 | B (“B” when it was 2.0 or higher and 2.5 or lower) | A (“A” when it was 2.6 or higher and 2.9 or lower) | 2.7 | 2.8 | A (“A” when it was 2.6 or higher and 2.9 or lower) | 2.3 | B (“B” when it was 2.0 or higher and 2.5 or lower) | AA (“AA” when it was 3.0 or higher) | 3.2 | – |
| cyclic (Pro-Val) [Coriander ID 29] | 2.2 | B (“B” when it was 2.0 or higher and 2.5 or lower) | B (“B” when it was 2.0 or higher and 2.5 or lower) | 2.3 | 2.5 | B (“B” when it was 2.0 or higher and 2.5 or lower) | B (“B” when it was 2.0 or higher and 2.5 or lower) | 2.2 | 3.0 | AA (“AA” when it was 3.0 or higher) | 2.3 | B (“B” when it was 2.0 or higher and 2.5 or lower) | B (“B” when it was 2.0 or higher and 2.5 or lower) | 2.3 | comparable flavor to that of the dispersion of common curry roux |
